Where “and” joins values, the source holds several entries; their conditions need not be identical. Equal values may be shown once.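 All cell lines were grown in 96-well plates and treated with compound for 48 hours. Here, GI50 denotes the concentration required for 50% inhibition of growth. The concentration for full growth arrest is given as TGI.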
Experiments:
Experiment in all cases: NCI tumour cell line growth inhibition, 48 h
UO-31 renal = tested on: UO-31 renal
NCI-H460 lung = tested on: NCI-H460 lung
HCT-15 colon = tested on: HCT-15 colon
EKVX NSCLC = tested on: EKVX NSCLC
RPMI-8226 leukemia = tested on: RPMI-8226 leukemia
SN12C renal = tested on: SN12C renal
SK-MEL-5 melanoma = tested on: SK-MEL-5 melanoma
IGROV1 ovarian = tested on: IGROV1 ovarian
SR leukemia = tested on: SR leukemia
NCI/ADR-RES ovarian = tested on: NCI/ADR-RES ovarian

Structure (SMILES)	TGI (UO-31 renal)	TGI (NCI-H460 lung) [µM]	TGI (HCT-15 colon) [µM]	TGI (EKVX NSCLC)	TGI (RPMI-8226 leukemia) [µM]	TGI (SN12C renal) [µM]	TGI (SK-MEL-5 melanoma)	TGI (IGROV1 ovarian)	TGI (SR leukemia) [µM]	GI50 (UO-31 renal) [µM]	GI50 (NCI-H460 lung) [µM]	GI50 (HCT-15 colon) [µM]	GI50 (RPMI-8226 leukemia) [µM]	GI50 (SN12C renal) [µM]	GI50 (SK-MEL-5 melanoma) [µM]	GI50 (IGROV1 ovarian) [µM]	GI50 (SR leukemia) [µM]	GI50 (NCI/ADR-RES ovarian) [µM]	TGI (NCI/ADR-RES ovarian) [µM]	GI50 (EKVX NSCLC) [µM]
COC(=O)[C@@]1(O)CC(C)C=C1C=O (some centres not stated)	> 100 µM	42.1	33.1	> 100 µM	> 100	> 100	> 100 µM	> 100 µM	> 100	–	–	–	–	–	–	–	–	–	–	–
CCCCCCCCC(O)C#CC(N)=O (configuration not stated)	21.6 µM	22	30.9	23.6 µM	41.1	23.8	24.3 µM	–	52.9	–	–	–	–	–	–	–	–	–	–	–
COC1=C2C[C@H](O)C(C)C[C@@]2(OC)OC1=O (some centres not stated)	> 100 µM	> 100	> 100	–	> 100	> 100	> 100 µM	> 100 µM	–	–	–	–	–	–	–	–	–	–	–	–
CCO/C=C1\N=C(C(Cl)c2ccccc2)OC1=O (configuration not stated)	> 100 µM	> 100	> 100	> 100 µM	> 100	> 100	> 100 µM	> 100 µM	–	–	–	–	–	–	–	–	–	–	–	–
Cc1cc([N+](=O)[O-])ccc1NS(=O)(=O)c1cc(Cl)ccc1Cl	17 µM	> 43.6	13.1	–	6.88	> 100	3.83 µM	> 100 µM	27.6	2.97	2.97	2.92	1.9	2.87	1.54	4.61	4.52	3.07	17.5	–
Cc1ccc(-c2cc(=O)c3cc(C)c(C)c(C(=O)O)c3o2)cc1	> 100 µM	> 100	> 100	> 100 µM	> 100	> 100	> 100 µM	> 100 µM	–	–	–	–	–	–	–	–	–	–	–	–
COc1ccc(OC)c(NCC#N)c1	> 100 µM	> 100	> 100	> 100 µM	> 100	> 100	> 100 µM	> 100 µM	–	–	–	–	–	–	–	–	–	–	–	–
COc1cc(C=O)c(-c2cc3c(cc2C2(C)OCCS2)OCO3)c(OC)c1OC (configuration not stated)	64.2 µM	> 75.6	30.2	> 97 µM	> 160	49.8	35.3 µM	> 169 µM	50	–	–	–	–	–	–	–	–	–	–	–
Cc1ccc(C(=O)N2c3ccccc3N(C)n3cccc3C2CC(=O)O)cc1 (configuration not stated)	> 100 µM	> 100	> 100	> 100 µM	> 100	> 100	> 100 µM	> 100 µM	–	–	–	–	–	–	–	–	–	–	–	–
CCOC(=O)[C@H]1CSC[C@@H](C(=O)OC)N1	> 100 µM	> 100	> 100	> 100 µM	> 100	> 100	> 100 µM	> 100 µM	> 100	–	–	–	–	–	–	–	–	–	–	–
O=C(O)C(C(=O)C(=O)C(C(=O)O)c1ccc(Cl)cc1)c1ccc(Cl)cc1 (configuration not stated)	15.4 µM	13.7	–	13.3 µM	5.91	10.8	–	9.03 µM	6	–	–	–	–	–	–	–	–	–	–	–
CCCCCCCC(=O)OCC1OC(n2cc(F)c(=O)[nH]c2=O)C(NC(=O)OCc2ccccc2)C(O)C1O (configuration not stated)	> 100 µM	> 100	> 100	> 100 µM	91.7	> 100	23.7 µM	> 100 µM	> 100	–	–	–	–	–	–	–	–	–	–	–
CCn1c2ccc(C(=O)CCCN(C)C)cc2c2cc(C(=O)CCCN(C)C)ccc21	12.8 µM	2.61	8.92	6.79 µM	–	5.87	17.1 µM	4.23 µM	–	–	–	–	–	–	–	–	–	–	21.9	–
O=c1cc(-c2ccccc2)[nH]c2c(Cl)cccc12	> 100 µM	> 100	> 100	> 100 µM	> 100	> 100	45.4 µM	> 100 µM	> 100	–	–	–	–	–	–	–	–	–	–	–
Cc1ccc(C(=O)N2CCN(C(=O)c3ccc(C)cc3)c3ccccc32)cc1	> 56.6 µM	> 100	> 100	> 100 µM	> 58.2	> 100	43.5 µM	> 100 µM	> 100	–	–	–	–	–	–	–	–	–	–	–
COc1ccc2c(c1)CCc1[nH]nc(-c3cc(OC)c(OC)c(OC)c3)c1-2	17.3 µM	2.06	11.8	–	–	22	< 0.01 µM	23.7 µM	22.9	< 0.01	< 0.01	< 0.01	–	< 0.01	< 0.01	< 0.01	< 0.01	< 0.01	< 0.01	–
CC(=O)OC(C)(C)/C=C/C(=O)[C@](C)(O)[C@H]1[C@H](O)C[C@@]2(C)[C@@H]3CC=C4[C@@H](C[C@H](O)C(=O)C4(C)C)[C@]3(CO)C(=O)C[C@]12C	0.883 µM and 0.565 µM	17.9	> 100	0.903 µM and 7.31 µM	2.28	17.4	0.894 µM and 1.33 µM	0.907 µM and 2.89 µM	29.4	0.251	0.407	0.351	0.356	0.368	0.171	0.463	0.462	–	–	0.432
C/C(CC(=O)Nc1ccc(Cl)cc1)=N\NC(=O)C[n+]1ccccc1	> 100 µM	> 100	–	> 100 µM	> 100	–	> 100 µM	> 100 µM	–	–	–	–	–	–	–	–	–	–	–	–
CCCCOC(=O)c1ccc(NC(=O)CCl)cc1	2.84 µM	10.7	3.19	7.13 µM	–	3.36	3.04 µM	4.34 µM	3.85	1.39	3.09	1.43	–	1.56	1.55	1.6	1.67	2.79	8.84	2.37
NC(CC(=O)Nc1ccc(Cl)cc1)=Nc1ccccc1	> 100 µM	> 100	–	> 100 µM	–	> 100	> 100 µM	> 100 µM	> 100	–	–	–	–	–	–	–	–	–	–	–
O=[P+](O)c1cc2ccccc2c2ccccc12	–	> 100	–	> 100 µM	> 100	> 100	> 100 µM	> 100 µM	–	–	–	–	–	–	–	–	–	–	–	–
O=C1[C@H]2ON(c3ccccc3)C(c3ccccc3F)[C@H]2C(=O)N1c1ccc(Cc2ccc(N3C(=O)[C@@H]4ON(c5ccccc5)C(c5ccccc5F)[C@@H]4C3=O)cc2)cc1 (some centres not stated)	> 100 µM	> 100	> 100	–	> 100	> 100	> 100 µM	> 100 µM	–	–	–	–	–	–	–	–	–	–	–	–

From PubChem BioAssay (NCI)
